Measurements: patent US20010006942A1, “Chemokine receptor peptide vaccines for treatment and prevention of diabetes” (priority 1998, published 2001)
Ends that are not written are not given here.

Columns and labels:
[1] = tested on: anti-CXCR3 antibody; assay: ELISA binding of receptor-derived peptides to anti-CXCR3 antibody; design: species or system mouse; conditions: peptide coated on plate, antibody 0.5 μg/well, 2 hours
Method: The ability of these receptor-derived peptides to bind anti-CXCR3 antibody was evaluated using a standard ELISA format. The peptides were dissolved in 0.1 M bicarbonate buffer and coated on a 96 well ELISA plate overnight. The excess peptides were removed and nonspecific binding sites in the wells were blocked by 0.1 % bovine serum albumin. Anti-CXCR3 antibody (0.5 μg/well) was added to these wells and incubated for 2 hours. Excess antibody was removed by washing with PBS. HRP conjugated goat anti-mouse antibody was used as secondary antibody for detection. […] Further support for the conclusion that anti-CXCR3 antibody bound two of the seven receptor-derived peptides was provided by FACS analysis of the same interactions.

[2] = tested on: CXCR3 cell line transfectant; assay: FACS analysis: blocking of anti-CXCR3 antibody binding to CXCR3 transfectant; type: cell-based, human
[3] = tested on: human CXCR3 SP-4-1 peptide; assay: serum ELISA for antibody response to SP4-1 peptide in vaccinated mice; type: in vivo; conditions: serum of vaccinated SJL mice, bled week 0 and week 5, ELISA
Method: The mice were bled at week 0 and week 5 and serum was tested by ELISA for the presence of antibodies against the human CXCR3 SP-4-1 peptide. Briefly, the SP4-1 peptide dissolved in 0.1 M sodium bicarbonate buffer was plated on a 96-well ELISA plate overnight. The nonspecific binding sites on the plate were coated with 0.1% bovine serum albumin solution in PBS. The wells were washed and serum (diluted in PBS) was added to the wells and incubated at room temperature for 1.5 hours. The wells were then washed and HRP conjugated anti-mouse immunoglobulin antibody was used to detect the presence of anti-SP4-1 antibodies).

[4] = tested on: EAE; assay: prevention of EAE in mice by peptide vaccination; conditions: SP4-1 with CFA s.c. at 21 and 14 days before induction of EAE with PLP 139-151, SJL mice
[5] = molecular target: T1, human CXCR3 (CXCR3-NSO transfectants) (Homo sapiens, UniProt P49682); assay: microphysiometer bioassay for CXCR3 activation (extracellular acidification rate); type: cell-based; conditions: 1, 5, 10 mglml ligand pumped for 10 min
T1 construct: expressed in transfected cells
T1 sequence (P49682 1-368): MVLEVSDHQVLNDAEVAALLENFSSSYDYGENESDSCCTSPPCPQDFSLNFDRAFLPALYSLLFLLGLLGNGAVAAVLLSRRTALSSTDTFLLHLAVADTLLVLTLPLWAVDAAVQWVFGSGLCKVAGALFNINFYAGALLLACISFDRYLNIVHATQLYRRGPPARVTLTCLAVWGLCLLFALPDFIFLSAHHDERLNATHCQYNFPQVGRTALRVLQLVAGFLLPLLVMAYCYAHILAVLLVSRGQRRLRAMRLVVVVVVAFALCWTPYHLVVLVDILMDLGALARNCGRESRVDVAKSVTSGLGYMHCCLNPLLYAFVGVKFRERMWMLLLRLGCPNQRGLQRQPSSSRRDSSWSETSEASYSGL
Method: (§1) 5X10^5 CXCR3-NSO transfectant cells and untransfected “BONZO-NSO” cells (negative control) were spotted in the microphysiometer chambers along with agarose and 1, 5, 10 […] anti-CXCR3 (FIG 1a) or IP-10 (FIG 1b) was pumped for 10 min. […] The arrow indicates the time that ligands were added to the cells.
A stable line transfectant of NSO-1 cells expressing the cDNA for human CXCR3 was prepared according to standard techniques. The surface expression of hu-CXCR3 on the transfectants compared to untransfected parent NSO-1 cells was confirmed by FACS staining using mouse anti-human CXCR3 monoclonal antibody (R&D systems).
(§2) To establish a bioassay for CXCR3 activation, the CXCR3 transfectant cells were cultured with either human IP-10, or the mouse anti-human CXCR3 antibody, and the physiological response of the cells was measured using a microphysiometer. This machine measures changes in the pH of the extracellular medium of the cell cultures which result from ligand receptor binding on the cell surface. These extracellular acidification rate measurements have previously been used as markers of antigen specific T cell activation and T cell epitope identification. The current assay is used to provide a biological read out for the identification of chemokine or chemokine receptor peptides involved in binding to IP- 10 or agonistic anti-CXCR3 antibody.

[6] = tested on: untransfected NSO-1 cells; assay: microphysiometer acidification rate, untransfected negative control cells; type: cell-based; conditions: untransfected NSO-1 (BONZO-NSO) cells
Method: as §1, §2

binding to anti-CXCR3 antibody [1] | acidification rate changes [5] | Substance | inhibition of binding of anti-CXCR3 antibody to CXCR3 transfectants [2] | antibody response against SP4-1 peptide [3] | mice showing no clinical symptoms of EAE [4] | acidification rate changes [6] | acidification rate changes ([6]; listed as IP-10)
nonbinding | – | DAAVQWVFGSGLCKV-NH2 [SP-2-1] | failed to inhibit binding | – | – | – | –
substantial binding | – | DILMDLGALARNCGRESRVDVAKS-NH2 [SP-4-1] | potently blocked binding | show an antibody response against this peptide | 7 out of 8 | – | –
substantial binding | – | PPCPQDFSLNFDRAFLPA-NH2 [SP-1-3] | partial inhibition | – | – | – | –
– | substantial acidification rate changes | human IP-10: human chemokine IP-10, ligand of CXCR3 | – | – | – | no change in acidification rate | did not show any change in acidification rate changes
